Results on 19 compounds are retold here after patent US9682925B2, “Cyclopropaneamine compound” (TAKEDA PHARMACEUTICAL COMPANY LIMITED, priority 2011, dated 2017).

Counter-ions that a name gives are not always drawn. Some results are limits rather than exact numbers.

Common to all, as to assay type: biochemical
One assay has as its target T1, MAO-B (Homo sapiens, UniProt P27338).
T1 construct: purchased Sigma-Aldrich Co. LLC
T1 sequence (P27338 1-520): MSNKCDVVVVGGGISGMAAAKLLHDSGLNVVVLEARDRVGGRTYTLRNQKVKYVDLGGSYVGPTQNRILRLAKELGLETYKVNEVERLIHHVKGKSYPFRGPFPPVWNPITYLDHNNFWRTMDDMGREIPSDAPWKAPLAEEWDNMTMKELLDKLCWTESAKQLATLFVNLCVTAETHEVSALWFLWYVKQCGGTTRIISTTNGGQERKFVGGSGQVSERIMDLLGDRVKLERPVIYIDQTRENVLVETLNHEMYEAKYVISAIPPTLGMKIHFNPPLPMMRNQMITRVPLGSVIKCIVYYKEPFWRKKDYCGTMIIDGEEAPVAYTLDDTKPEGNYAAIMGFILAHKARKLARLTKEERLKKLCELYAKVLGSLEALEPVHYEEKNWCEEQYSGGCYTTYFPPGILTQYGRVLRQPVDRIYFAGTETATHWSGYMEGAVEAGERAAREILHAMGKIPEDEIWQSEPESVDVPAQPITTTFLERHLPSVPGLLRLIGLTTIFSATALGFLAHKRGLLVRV
Briefly: Measurement of MAO-B inhibitory activity (MAO-Glo Assay). Summed up:
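Percent inhibition was calculated from luciferin-based luminescence, corrected with a blank lacking enzyme and a control lacking compound. The reaction ran 60 min at room temperature after adding MAO substrate (16 µM as added). This followed a 10 min compound–enzyme preincubation in HEPES pH 7.5 buffer.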

The target in the next assay is T2, human LSD1(171-852) (Homo sapiens, UniProt O60341).
T2 construct: to give hLSD1(171-852) purified product; made in house; host or cells: Escherichia coli C43(DE3) pLysS
As to the kind of experiment: Measurement of LSD1 inhibitory activity (time-resolved fluorescence, biotin-histone H3 mono methylated K4 peptide). Conditions: read-out: LSD1 IC50 value.

The next assay concerns the target T3, MAO-A (Homo sapiens, UniProt P21397).
T3 construct: purchased Sigma-Aldrich Co. LLC
T3 sequence (P21397 1-527): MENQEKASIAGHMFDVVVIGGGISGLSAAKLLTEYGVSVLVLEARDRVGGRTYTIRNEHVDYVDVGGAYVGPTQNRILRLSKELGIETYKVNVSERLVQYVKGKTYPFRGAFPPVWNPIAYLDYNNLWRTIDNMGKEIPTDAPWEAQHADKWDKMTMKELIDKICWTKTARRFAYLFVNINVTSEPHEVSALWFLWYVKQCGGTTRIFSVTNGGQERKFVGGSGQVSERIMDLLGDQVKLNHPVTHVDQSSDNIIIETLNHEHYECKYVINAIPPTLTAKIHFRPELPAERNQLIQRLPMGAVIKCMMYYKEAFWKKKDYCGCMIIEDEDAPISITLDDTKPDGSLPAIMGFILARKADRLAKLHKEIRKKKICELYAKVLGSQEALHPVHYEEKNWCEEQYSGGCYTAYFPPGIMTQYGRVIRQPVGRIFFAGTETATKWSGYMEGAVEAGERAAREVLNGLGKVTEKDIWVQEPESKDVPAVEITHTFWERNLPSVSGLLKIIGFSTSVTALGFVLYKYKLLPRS
Briefly: Measurement of MAO-A inhibitory activity (MAO-Glo Assay). Summed up: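 MAO-A (400 ng) was pre-incubated with compound 10 min at room temperature in 100 mM HEPES pH 7.5, 5% glycerol, then MAO substrate (160 μM stock) added for 60 min. Luciferin detection reagent, 20 min, luminescence; % inhibition against no-compound control minus no-enzyme blank.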

As for `O=C1c2ccccc2CN1c1ccc([C@@H]2C[C@H]2NCC2CC2)cc1` (relative stereo) [Example 144, 2-(4-{trans-2-[(cyclopropylmethyl)amino]cyclopropyl}phenyl)isoindolin-1-one hydrochloride], the IC50 was greater than 10 µM at MAO-B, 0.2 µM at human LSD1(171-852) and greater than 10 µM against MAO-A.

For the compound `CC(N[C@@H]1C[C@H]1c1ccc(NC(=O)c2ccccc2)cc1)c1ccccc1` (relative stereo) [Example 19, N-(4-{trans-2-[(1-phenyl-ethyl)amino]-cyclopropyl}-phenyl)benzamide], the IC50 at MAO-B was 3.2 µM; at human LSD1(171-852), less than 0.1 µM; on MAO-A, greater than 10 µM.

Consider `CN(C(=O)c1ccc(-c2ccccc2)cc1)c1ccc([C@@H]2C[C@H]2NCC2CC2)cc1` (relative stereo) [Example 64, N-(4-{trans-2-[(cyclopropylmethyl)amino]cyclopropyl}phenyl)-N-methylbiphenyl-4-carboxamide hydrochloride], for which the IC50 on MAO-B was greater than 10 µM; on human LSD1(171-852), 0.2 µM; against MAO-A, 8.5 µM.

Regarding `Cn1ncc(C(=O)Nc2ccc([C@@H]3C[C@H]3NCC3CC3)cc2)c1C(F)(F)F` (relative stereo) [Example 159, N-(4-{trans-2-[(cyclopropylmethyl)amino]cyclopropyl}phenyl)-1-methyl-5-(trifluoromethyl)-1H-pyrazole-4-carboxamide hydrochloride], the IC50 was greater than 10 µM at MAO-B, less than 0.1 µM on human LSD1(171-852) and greater than 10 µM against MAO-A.

Consider `O=C(Nc1ccc([C@@H]2C[C@H]2NCc2ccc3cccnc3n2)cc1)c1cccc(C(F)(F)F)c1` (relative stereo) [Example 162, N-(4-{trans-2-[(1,8-naphthyridin-2-ylmethyl)amino]cyclopropyl}phenyl)-3-(trifluoromethyl)benzamide hydrochloride], for which the figures for the IC50 against MAO-B, at human LSD1(171-852) and against MAO-A were greater than 10 µM, less than 0.1 µM and 2.1 µM, respectively.

Consider `O=C(Nc1ccc([C@@H]2C[C@H]2NCc2cccs2)cc1)c1ccccc1` (relative stereo) [Example 13, N-(4-{trans-2-[(thiophen-2-ylmethyl)amino]-cyclopropyl}-phenyl)benzamide], for which the IC50 against MAO-B was greater than 10 µM; at human LSD1(171-852), less than 0.1 µM; on MAO-A, greater than 10 µM.

Regarding `Cc1cc(C(=O)Nc2ccc([C@@H]3C[C@H]3NCC3CC3)cc2)n(C)n1` (relative stereo) [Example 156, N-(4-{trans-2-[(cyclopropylmethyl)amino]cyclopropyl}phenyl)-1,3-dimethyl-1H-pyrazole-5-carboxamide dihydrochloride], the results for the IC50 at MAO-B, at human LSD1(171-852) and at MAO-A were greater than 10 µM, less than 0.1 µM and greater than 10 µM, respectively.

For the compound `O=C(Nc1ccc([C@@H]2C[C@H]2NCC2CC2)cc1)c1cnn(-c2ccccc2)c1` (relative stereo) [Example 124, N-(4-{trans-2-[(cyclopropyl-methyl)amino]cyclo-propyl}phenyl)-1-phenyl-1H-pyrazole-4-carboxamide], the IC50 against MAO-B was greater than 10 µM; at human LSD1(171-852) it was less than 0.1 µM; on MAO-A, greater than 10 µM.

Regarding `Cc1oc(-c2ccccc2)nc1C(=O)Nc1ccc([C@@H]2C[C@H]2NCC2CC2)cc1` (relative stereo) [Example 122, N-(4-{trans-2-[(cyclopropylmethyl)amino]cyclopropyl}-phenyl)-5-methyl-2-phenyl-1,3-oxazole-4-carboxamide], the IC50 at MAO-B was greater than 10 µM; on human LSD1(171-852), less than 0.1 µM; against MAO-A it was greater than 10 µM.

Turning to `O=C(Nc1ccc([C@@H]2C[C@H]2NC2CCN(CC(F)(F)F)CC2)cc1)c1ccc(-c2ccccc2)cc1` (relative stereo) [Example 63, N-{4-[trans-2-{[1-(2,2,2-trifluoroethyl)piperidin-4-yl]amino}cyclopropyl]phenyl}biphenyl-4-carboxamide hydrochloride], the IC50 at MAO-B is greater than 10 µM; at human LSD1(171-852), less than 0.1 µM; against MAO-A, greater than 10 µM.

`CC(C)(C)CN[C@@H]1C[C@H]1c1ccc(NC(=O)c2ccccc2)cc1` (relative stereo) [Example 17, N-(4-{trans-2-[(2,2-dimethyl-propyl)amino]-cyclopropyl)-phenyl)benzamide]: the IC50 is greater than 10 µM at MAO-B, less than 0.1 µM at human LSD1(171-852) and greater than 10 µM on MAO-A.

Regarding `CCCCCCCCN[C@@H]1C[C@H]1c1ccc(NC(=O)c2cccc(Br)c2)cc1` (relative stereo) [Example 4, 3-bromo-N-{4-[trans-2-(octylamino)cyclopropyl]phenyl}benzamide], the figures for the IC50 against MAO-B, on human LSD1(171-852) and at MAO-A were greater than 10 µM, 0.24 µM and greater than 10 µM, respectively.

In the case of `CN(C)c1ccc(C(=O)Nc2ccc([C@@H]3C[C@H]3NCC3CC3)cc2)cc1` (relative stereo) [Example 84, N-(4-{trans-2-[(cyclopropylmethyl)amino]cyclopropyl}-phenyl)-4-(dimethylamino)-benzamide], the IC50 is greater than 10 µM on MAO-B, less than 0.1 µM on human LSD1(171-852) and greater than 10 µM against MAO-A.

On to `O=C(Nc1ccc([C@@H]2C[C@H]2NCC2CC2)cc1)c1ccc2nc(-c3ccco3)[nH]c2c1` (relative stereo) [Example 98, N-(4-{trans-2-[(cyclopropylmethyl)-amino]cyclopropyl}-phenyl)-2-(2-furyl)-1H-benzimidazole-6-carboxamide], for which the results for the IC50 on MAO-B, at human LSD1(171-852) and against MAO-A were greater than 10 µM, less than 0.1 µM and greater than 10 µM, respectively.

Take `O=C(Nc1ccc([C@@H]2C[C@H]2NC2CCCCCC2)cc1)c1ccccc1` (relative stereo) [Example 23, N-{4-[trans-2-(cycloheptyl-amino)cyclo-propyl]phenyl}-benzamide]: the IC50 at MAO-B is greater than 10 µM; at human LSD1(171-852), less than 0.1 µM; at MAO-A it was greater than 10 µM.

With `CN1CCC(N[C@@H]2C[C@H]2c2ccc(NC(=O)c3cccc(C(F)(F)F)c3)cc2)CC1` (single isomer, unassigned) [Example 153, N-(4-{(1S,2R) or (1R,2S)-2-[(1-methylpiperidin-4-yl)amino]cyclopropyl}phenyl)-3-(trifluoromethyl)benzamide dihydrochloride], the IC50 at MAO-B was greater than 10 µM; on human LSD1(171-852), less than 0.1 µM; on MAO-A it was greater than 10 µM.

With `O=C(Nc1ccc([C@@H]2C[C@H]2NCc2ccccc2)cc1)c1cccc(-c2ccccc2)c1` (relative stereo) [Example 36, N-{4-[trans-2-(benzylamino)cyclopropyl]phenyl}biphenyl-3-carboxamide], the IC50 was greater than 10 µM on MAO-B, less than 0.1 µM on human LSD1(171-852) and 4.6 µM on MAO-A.

As for `O=C(Nc1ccc([C@@H]2C[C@H]2NCc2ccccc2)cc1)c1cccc(C(F)(F)F)c1` (relative stereo) [Example 8, N-{4-[trans-2-(benzylamino)cyclopropyl]phenyl}-3-(trifluoromethyl)benzamide], the IC50 was greater than 10 µM on MAO-B, less than 0.1 µM on human LSD1(171-852) and 5.8 µM on MAO-A.

Consider `O=C(Nc1ccc([C@@H]2C[C@H]2NC2CCNC(c3ccccc3)C2)cc1)c1cccc(C(F)(F)F)c1` (relative stereo) [Example 77, N-(4-{trans-2-[(2-phenylpiperidin-4-yl)amino]cyclopropyl}phenyl)-3-(trifluoromethyl)benzamide dihydrochloride], for which the values for the IC50 against MAO-B, on human LSD1(171-852) and on MAO-A were greater than 10 µM, less than 0.1 µM and 9.9 µM, respectively.

By IC50 is commonly meant the concentration needed to halve the response being measured.
